{
  "source": "paper PMC6430500",
  "about": "“3-Fluoro-4-hydroxyprolines: Synthesis, Conformational Analysis, and Stereoselective Recognition by the VHL E3 Ubiquitin Ligase for Targeted Protein Degradation” (Journal of the American Chemical Society, 2018)",
  "key": {"VBC": {"biological_target": "T1, VBC (Homo sapiens, UniProt P40337)", "T1 construct": "VHL (54–213), ElonginC (17–112) and; His6 (N, cleaved yes); made in house; host or cells: Escherichia coli BL21(DE3)", "assay": "ITC of PROTACs, binary complex PROTAC–VBC", "type": "binding", "details": "for ΔG / ΔH / –TΔS / Kd: PROTAC in cell, VBC in syringe; for Kd: mean ± SEM", "description": "(§1) structure (C2 R, C3 S, C4 R) assumed on the basis of unchanging stereogenic centres in the synthesis.\n(§2) Final R(F) = 0.033, wR(F 2) = 0.085 for 275 parameters and 3901 reflections with I > 2σ(I) (corresponding R-values based on all 4067 reflections = 0.035 and 0.086, respectively), CCDC […]\n(§3) Protein expression and purification.\n(§4) Wild-type versions of human proteins VHL (UniProt accession number: P40337), ElonginC […]\n(§5) expression. For expression of VBC, N-terminally His6-tagged VHL (54–213), ElonginC (17–112) and ElonginB (1–104) were co- expressed in Escherichia coli BL21(DE3) at 24 °C for 16 h using 0.3 mM isopropyl β-D -1-thiogalactopyranoside (IPTG). E. coli cells were lysed using a pressure cell homogenizer (Stansted Fluid Power) and lysate clarified by centrifugation. His6-tagged VCB was purified on a HisTrap FF affinity column (GE Healthcare) by elution with an imidazole gradient. The His6tag was removed using TEV protease and the untagged complex dialyzed into low -concentration imidazole buffer. VCB was then flowed through the HisTrap FF column a second time, allowing impurities to bind, as the complex eluted without binding. VCB was then additionally purified by anion exchange and size-exclusion chromatography using ResourceQ and Superdex-75 columns (GE Healthcare), respectively. The final purified complex was stored in 20 mM Bis–Tris, pH 7, 150 mM sodium chloride and 1 mM dithiothreitol (DTT). Brd2BD1 (71–194), and Brd4BD2 (333–460) were expressed with an N-terminal His6 tag in E. coli BL21(DE3) at 18 °C for 20 h using 0.2 mM IPTG.\n(§6) His6-tagged BDs were purified on nickel Sepharose 6 fast flow beads (GE Healthcare) by elution with increasing concentrations of imidazole. For crystallography the His6-tagged BD was cleaved with TEV protease and dialyzed into low-concentration imidazole buffer. The BD was then flowed over the nickel beads a second time to remove impurities and protease. BDs were then additionally purified by size-exclusion chromatography using a Superdex-75 column. The BDs were purified by size-exclusion chromatography using a Superdex-75 column. The final purified proteins were stored in 20 mM 4-(2-hydroxyethyl)-1-piperazineethanesulfonic acid (HEPES), pH 7.5, 150 mM sodium chloride and 1 mM DTT. All chromatography purification steps were performed using Äkta FPLC purification systems (GE Healthcare) or glass econo-columns (Bio-Rad) at room temperature.\n(§7) Isothermal titration calorimetry (ITC) of peptides and ligands\n(§8) Titrations were performed on an ITC200 micro-calorimeter (GE Healthcare). The peptides were dissolved in buffer (20 mM Bis–Tris propane, 100 mM NaCl, 1 mM tris(2-carboxyethyl)phosphine […]\n(§9) (TCEP), pH 7.4) at 100 µM. The compounds were titrated against 10 µM VBC complex, equilibrated in the same buffer. The titrations consisted of 20 injections of 2 µL of peptide solution at a rate of 0.5 µL/s at 120 s time intervals. An initial injection of ligand (0.4 µL) was made and discarded during data analysis. All experiments were performed at 25°C while stirring at 650 rpm.\n(§10) Ligands 14a- b were diluted from DMSO stock solution to 300 µM in buffer (20 mM Bis-Tris propane, 150 mM NaCl, 1 mM TCEP, pH 7.4). The compounds were titrated against 30 µM VBC complex, equilibrated in the same buffer. The final concentration of DMSO in each experiment was […]\n(§11) The data were fitted to a single-binding-site model using the MicroCal PEAQ-ITC analysis software provided by the manufacturer to obtain the stoichiometry n, the dissociation constant K d, and the enthalpy of binding ΔH . The reported values are the mean ± s.e.m. from independent measurements.\n(§12) Isothermal titration calorimetry (ITC)of PROTACs\n(§13) The titrations were all performed as reverse mode (protein in syringe, ligand in cell) and consisted of 19 injections of 2 µl protein solution (20 mM Bis–Tris propane, 100 mM NaCl, 1 mM tris(2-carboxyethyl)phosphine (TCEP), pH 7.4) at a rate of 0.5 µl/s at 120 s time intervals. An initial injection (0.4 µl) was made and discarded during data analysis. […]"}, "VBC and Brd4BD2": {"biological_target": "T2, VBC and Brd4BD2 (Homo sapiens, UniProt O60885+P40337)", "T2 construct": "VHL (54–213), ElonginC (17–112) and; Brd4BD2 (333–460); His6 (N, cleaved yes); made in house; host or cells: E. coli BL21(DE3)", "assay": "ITC ternary complex formation, VBC titrated into PROTAC:Brd4BD2", "type": "binding", "details": "for α (cooperativity): Kd binary,VBC/Kd ternary; for α (cooperativity) / ΔΔG: Brd4BD2; for Kd / ΔG / ΔH / –TΔS: PROTAC:Brd4BD2 in cell, VBC in syringe; for ΔΔG: ternary vs binary", "description": "as §1, §2, §3, §4, §5, §6, §7, §8, §9, §10, §11, §12, §13"}, "A549 cells": {"tested_on": "A549 cells", "assay": "A549 colony-formation assay", "type": "cell-based", "details": "7 days, crystal violet", "description": "A549 Colony-Formation Assay\nA549 cells were seeded in clear, Nunc™ Edge 2.0 96 -w ell plates (Thermo Scientific) at 1000 cells per well and incubated at 37°C in DMEM. After 24 h cells were treated with test compounds from 10 µM to 100 nM , with a final DM SO of 0.1%. The cells were left to grow until DM SO -treated wells reached ~100% confluence (~8 days), at which point they were washed with PBS, fixed with 100% MeOH (30 min 4°C), stained with 0.1% crystal violet (30 min at r.t.) and left to dry overnight. Once dried plates were imaged on an Epson Perfection V800 scanner, at a resolution of 1200 DPI and in 48 -bit colour.\nFor dose-response curves, crystal-violet dye was extracted by the addition of 200 µl 1% SDS to each well, and incubation for 3 h at r.t. The absorbance at 595nm of each well was measured on a Pherastar FS (BMG), normalised for each compound and plotted against compound concentration.\n(1 picture or pasted object on this page, not shown here)"}, "VBC and Brd2BD1": {"biological_target": "T3, VBC and Brd2BD1 (Homo sapiens, UniProt P25440+P40337)", "T3 construct": "VHL (54–213), ElonginC (17–112) and; Brd2BD1 (71–194),; His6 (N, cleaved yes); made in house; host or cells: E. coli BL21(DE3)", "assay": "ITC ternary complex formation, VBC titrated into PROTAC:Brd2BD1", "type": "binding", "details": "for α (cooperativity): Kd binary,VBC/Kd ternary; for α (cooperativity) / ΔΔG: Brd2BD1; for Kd / ΔG / ΔH / –TΔS: PROTAC:Brd2BD1 in cell, VBC in syringe; for ΔΔG: ternary vs binary", "description": "as §1, §2, §3, §4, §5, §6, §7, §8, §9, §10, §11, §12, §13"}},
  "data": [
    {"smiles": "Cc1ncsc1-c1ccc(CNC(=O)[C@@H]2[C@@H](F)[C@@H](O)CN2C(=O)[C@@H](NC(=O)COCCOCCOCCNC(=O)C[C@@H]2N=C(c3ccc(Cl)cc3)c3c(sc(C)c3C)-n3c(C)nnc32)C(C)(C)C)cc1", "note": "[15a]", "values": [
      {"measurement": "ΔG", "setting": "VBC", "value": "-9.01 ± 0.02", "unit": "kcal/mol"},
      {"measurement": "ΔH", "setting": "VBC", "value": "-7.9 ± 0.3", "unit": "kcal/mol"},
      {"measurement": "–TΔS", "setting": "VBC", "value": "-1.1 ± 0.2", "unit": "kcal/mol"},
      {"measurement": "Kd", "setting": "VBC", "value": "249 ± 6", "unit": "nM"},
      {"measurement": "α (cooperativity)", "setting": "VBC and Brd4BD2", "value": 9.5},
      {"measurement": "Kd", "setting": "VBC and Brd4BD2", "value": "26 ± 5", "unit": "nM"},
      {"measurement": "ΔG", "setting": "VBC and Brd4BD2", "value": -10.13, "unit": "kcal/mol"},
      {"measurement": "ΔH", "setting": "VBC and Brd4BD2", "value": "-10.9 ± 0.7", "unit": "kcal/mol"},
      {"measurement": "–TΔS", "setting": "VBC and Brd4BD2", "value": "-0.6 ± 0.4", "unit": "kcal/mol"},
      {"measurement": "ΔΔG", "setting": "VBC and Brd4BD2", "value": -1.12, "unit": "kcal/mol"},
      {"measurement": "effect on cell growth, colony formation (in words)", "setting": "A549 cells", "value": "profound concentration-dependent cytotoxicity"},
      {"measurement": "α (cooperativity)", "setting": "VBC and Brd2BD1", "value": 3.9},
      {"measurement": "Kd", "setting": "VBC and Brd2BD1", "value": "64 ± 3", "unit": "nM"},
      {"measurement": "ΔG", "setting": "VBC and Brd2BD1", "value": "-9.85 ± 0.05", "unit": "kcal/mol"},
      {"measurement": "ΔH", "setting": "VBC and Brd2BD1", "value": -9.17, "unit": "kcal/mol"},
      {"measurement": "–TΔS", "setting": "VBC and Brd2BD1", "value": "-0.6 ± 0.6", "unit": "kcal/mol"},
      {"measurement": "ΔΔG", "setting": "VBC and Brd2BD1", "value": -0.85, "unit": "kcal/mol"}
    ]},
    {"smiles": "Cc1ncsc1-c1ccc(CNC(=O)[C@@H]2[C@H](F)[C@@H](O)CN2C(=O)[C@@H](NC(=O)COCCOCCOCCNC(=O)C[C@@H]2N=C(c3ccc(Cl)cc3)c3c(sc(C)c3C)-n3c(C)nnc32)C(C)(C)C)cc1", "note": "[15b]", "values": [
      {"measurement": "fold weaker ligand for VBC", "setting": "VBC; 15b compared to 15a", "value": 2.5, "unit": "fold"},
      {"measurement": "ΔG", "setting": "VBC", "value": "-8.49 ± 0.07", "unit": "kcal/mol"},
      {"measurement": "ΔH", "setting": "VBC", "value": "-5.0 ± 0.2", "unit": "kcal/mol"},
      {"measurement": "–TΔS", "setting": "VBC", "value": "-3.7 ± 0.2", "unit": "kcal/mol"},
      {"measurement": "Kd", "setting": "VBC", "value": "603 ± 74", "unit": "nM"},
      {"measurement": "α (cooperativity)", "setting": "VBC and Brd4BD2", "value": 14.5},
      {"measurement": "Kd", "setting": "VBC and Brd4BD2", "value": "42 ± 6", "unit": "nM"},
      {"measurement": "ΔG", "setting": "VBC and Brd4BD2", "value": -10.01, "unit": "kcal/mol"},
      {"measurement": "ΔH", "setting": "VBC and Brd4BD2", "value": -7.75, "unit": "kcal/mol"},
      {"measurement": "–TΔS", "setting": "VBC and Brd4BD2", "value": -2.34, "unit": "kcal/mol"},
      {"measurement": "ΔΔG", "setting": "VBC and Brd4BD2", "value": "-1.6 ± 0.1", "unit": "kcal/mol"},
      {"measurement": "effect on cell growth, colony formation (in words)", "setting": "A549 cells", "value": "affected cell growth only modestly"},
      {"measurement": "α (cooperativity)", "setting": "VBC and Brd2BD1", "value": 1.2},
      {"measurement": "Kd", "setting": "VBC and Brd2BD1", "value": "500 ± 96", "unit": "nM"},
      {"measurement": "ΔG", "setting": "VBC and Brd2BD1", "value": "-8.6 ± 0.1", "unit": "kcal/mol"},
      {"measurement": "ΔH", "setting": "VBC and Brd2BD1", "value": "-5.1 ± 0.2", "unit": "kcal/mol"},
      {"measurement": "–TΔS", "setting": "VBC and Brd2BD1", "value": "-3.6 ± 0.3", "unit": "kcal/mol"},
      {"measurement": "ΔΔG", "setting": "VBC and Brd2BD1", "value": "-0.1 ± 0.1", "unit": "kcal/mol"}
    ]}
  ]
}
